According to PubChem BioAssay AID1919008 (Molecular Pharmacology Branch, DTP, NCI, 2023):
Values joined by “and” are separate entries in the source; they are usually repeats but may differ in a detail not shown here. Equal values may be shown once.

Test system: DMS-114 complex spheroids with HUVEC/MSC, growth % test/control
Assay: Anticancer human tumor DMS-114 cell line growth inhibition [AhR];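 note: spheroids exposed to agents for 7 days before readout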;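 for viability, T/C: 100% = DMSO vehicle control wells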
Conditions: for viability, T/C: stronger effect = lower value
Method in brief: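 Spheroids combined tumor cells with HUVEC endothelial cells and human MSCs as stroma. AhR antagonists were paired with standard or investigational drugs, each dosed in half-log steps down from near clinical Cmax, or from 10 microM where Cmax was unknown.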

[1] = curve of first compound, second compound 0.1 µM
[2] = curve of first compound, second compound 0.316 µM
[3] = curve of first compound, second compound 1 µM
[4] = curve of first compound, second compound 3.16 µM
[5] = curve of first compound, second compound 10 µM
[6] = second compound 0.1 µM, first compound 0.0316 µM
[7] = second compound 0.1 µM, first compound 0.1 µM
[8] = second compound 0.1 µM, first compound 0.316 µM
[9] = second compound 0.1 µM, first compound 1 µM
[10] = second compound 0.316 µM, first compound 0.0316 µM
[11] = second compound 0.316 µM, first compound 0.1 µM
[12] = second compound 0.316 µM, first compound 0.316 µM
[13] = second compound 0.316 µM, first compound 1 µM
[14] = second compound 1 µM, first compound 0.0316 µM
[15] = second compound 1 µM, first compound 0.1 µM
[16] = second compound 1 µM, first compound 0.316 µM
[17] = second compound 1 µM, first compound 1 µM
[18] = second compound 3.16 µM, first compound 0.0316 µM
[19] = second compound 3.16 µM, first compound 0.1 µM
[20] = second compound 3.16 µM, first compound 0.316 µM
[21] = second compound 3.16 µM, first compound 1 µM
[22] = second compound 10 µM, first compound 0.0316 µM
[23] = second compound 10 µM, first compound 0.1 µM
[24] = second compound 10 µM, first compound 0.316 µM
[25] = second compound 10 µM, first compound 1 µM
[26] = second compound 0.1 µM, first compound 3.16 µM
[27] = second compound 0.1 µM, first compound 10 µM
[28] = second compound 0.316 µM, first compound 3.16 µM
[29] = second compound 0.316 µM, first compound 10 µM
[30] = second compound 1 µM, first compound 3.16 µM
[31] = second compound 1 µM, first compound 10 µM
[32] = second compound 3.16 µM, first compound 3.16 µM
[33] = second compound 3.16 µM, first compound 10 µM
[34] = second compound 10 µM, first compound 3.16 µM
[35] = second compound 10 µM, first compound 10 µM

Row | Compound | IC50 [1] [µM] | IC50 [2] [µM] | IC50 [3] [µM] | IC50 [4] [µM] | IC50 [5] [µM] | viability, T/C [6] [%] | viability, T/C [7] [%] | viability, T/C [8] [%] | viability, T/C [9] [%] | viability, T/C [10] [%] | viability, T/C [11] [%] | viability, T/C [12] [%] | viability, T/C [13] [%] | viability, T/C [14] [%] | viability, T/C [15] [%] | viability, T/C [16] [%] | viability, T/C [17] [%] | viability, T/C [18] [%] | viability, T/C [19] [%] | viability, T/C [20] [%] | other results
1 | CC1COCCN1c1cc(-c2ccnn2C)c2ccnc(-c3ccn[nH]3)c2n1 (configuration not stated) + Cc1cncc(-c2nc(NCCc3c[nH]c4ccccc34)c3ncn(C(C)C)c3n2)c1 | 0.038 | 0.051 | 0.0415 | 0.0418 | < 0.00316 | 51 | 29.9 | 19.6 | 12.8 | 61.8 | 31.4 | 19.8 | 12 | 55.3 | 27.9 | 23.6 | 11.7 | 55.8 | 26.7 | 17 | viability, T/C (second compound 0.1 µM, first compound 0.00316 µM): 90.6%; viability, T/C (second compound 0.1 µM, first compound 0.01 µM): 85.9%; viability, T/C (second compound 0.316 µM, first compound 0.00316 µM): 97.1%; viability, T/C (second compound 0.316 µM, first compound 0.01 µM): 93.7%; viability, T/C (second compound 1 µM, first compound 0.00316 µM): 87.5%; viability, T/C (second compound 1 µM, first compound 0.01 µM): 92.6%; viability, T/C (second compound 3.16 µM, first compound 0.00316 µM): 83.9%; viability, T/C (second compound 3.16 µM, first compound 0.01 µM): 85.9%; viability, T/C [21]: 11.2%; viability, T/C (second compound 10 µM, first compound 0.00316 µM): 28.8%; viability, T/C (second compound 10 µM, first compound 0.01 µM): 29.6%; viability, T/C [22]: 22.6%; viability, T/C [23]: 15.5%; viability, T/C [24]: 9.12%; viability, T/C [25]: 7.26%
2 | Nc1ccn(C2OC(CO)C(O)C2(F)F)c(=O)n1 (configuration not stated) + Cc1ccccc1N=Nc1ccc(NC(=O)c2ccnn2C)c(C)c1 | < 0.0316 | < 0.0316 | < 0.0316 | < 0.0316 | < 0.0316 | 21.8 | 23.8 | 25.1 | 23.9 | 25.6 | 28.2 | 26.3 | 23 | 25.5 | 24.6 | 26.5 | 23.7 | 25.4 | 27.7 | 28.3 | viability, T/C [26]: 25.7%; viability, T/C [27]: 25.5%; viability, T/C [28]: 23.2%; viability, T/C [29]: 24.2%; viability, T/C [30]: 26.4%; viability, T/C [31]: 25.7%; viability, T/C [21]: 24.9%; viability, T/C [32]: 26.8%; viability, T/C [33]: 28.5%; viability, T/C [22]: 29.2%; viability, T/C [23]: 32.7%; viability, T/C [24]: 29.4%; viability, T/C [25]: 31.7%; viability, T/C [34]: 31.7%; viability, T/C [35]: 30%
3 | COc1cc(Nc2ncc3c(n2)-c2ccc(Cl)cc2C(c2c(F)cccc2OC)=NC3)ccc1C(=O)O + Cc1ccccc1N=Nc1ccc(NC(=O)c2ccnn2C)c(C)c1 | > 10 | > 10 | > 10 | > 10 | < 0.0316 | 63 | 57.5 | 106 | 108 | 55 | 56.8 | 108 | 115 | 58.1 | 53.3 | 104 | 107 | 52.3 | 50.6 | 103 | viability, T/C [26]: 123%; viability, T/C [27]: 107%; viability, T/C [28]: 111%; viability, T/C [29]: 98.4%; viability, T/C [30]: 102%; viability, T/C [31]: 106%; viability, T/C [21]: 95.8%; viability, T/C [32]: 106%; viability, T/C [33]: 95.8%; viability, T/C [22]: 44.7%; viability, T/C [23]: 42%; viability, T/C [24]: 84.7%; viability, T/C [25]: 87.1%; viability, T/C [34]: 85%; viability, T/C [35]: 76.3%
4 | CC1COCCN1c1cc(C2(S(C)(=N)=O)CC2)nc(-c2ccnc3[nH]ccc23)n1 (configuration not stated) + Cc1ccccc1N=Nc1ccc(NC(=O)c2ccnn2C)c(C)c1 | > 10 | > 10 | > 10 | > 10 | > 10 | 107 | 100 | 104 | 109 | 102 | 98.1 | 103 | 103 | 95.5 | 94.5 | 90.6 | 102 | 93.3 | 90.5 | 99.3 | viability, T/C [26]: 106%; viability, T/C [27]: 77.6%; viability, T/C [28]: 92.5%; viability, T/C [29]: 74.1%; viability, T/C [30]: 102%; viability, T/C [31]: 71.5%; viability, T/C [21]: 95.4%; viability, T/C [32]: 94.2%; viability, T/C [33]: 68%; viability, T/C [22]: 95.7%; viability, T/C [23]: 90.7%; viability, T/C [24]: 96.2%; viability, T/C [25]: 89.6%; viability, T/C [34]: 86.1%; viability, T/C [35]: 63.1%
5 | Cn1ncnc1C1c2n[nH]c(=O)c3cc(F)cc(c23)NC1c1ccc(F)cc1 (configuration not stated) | – | – | – | – | – | – | – | – | – | – | – | – | – | – | – | – | – | – | – | – | viability, T/C (compound 0.000316 µM): 100% and 96.9% and 109%; viability, T/C (compound 0.001 µM): 98.4% and 102% and 98%; viability, T/C (compound 0.00316 µM): 95.9% and 96.9% and 99.1%; viability, T/C (compound 0.01 µM): 96% and 100% and 99.3%; viability, T/C (compound 0.0316 µM): 93.1% and 107% and 99.9%; viability, T/C (compound 0.1 µM): 76.3% and 101% and 86.2%; IC50 (curve of compound): > 0.1 µM
